6 molecules from patent publication US20250032493A1, “Methods for Treating Diseases Using MALT1 Inhibitors” (RARIFIED BIOSCIENCES, INC., priority 2021, published 2025) can be followed below.

Entries after “also recorded” stand apart in the source; their conditions may differ.

In data set [1] the test system is splenic Tregs. In words: Rat CIA model: splenic Treg levels. It counts as in vivo. To be noted: for reduction in the Treg levels: in comparison to vehicle. The procedure: For isolation of synovial fluid prior to study termination, animals were anesthetized and the skin on the hind limbs were separated to ensure exposure of knee joint. A small incision was made near the top of the knee joint and the articular cavity was rinsed with 60 μl phosphate-buffered saline (PBS) for 2 time and ˜50-60 μl synovial fluid was collected. The synovial fluid samples were spun down, and the supernatant stored at −80° C. prior to cytokine analysis. At study termination, plasma was prepared from whole blood and stored at −80° C. prior to cytokine analysis and measurement of total and anti-collagen IgG. Single cell suspensions were prepared from harvested spleens following standard methods and Treg frequencies measured by flow cytometry-based immunophenotyping of freshly isolated cells.
Harvested spleens were homogenized in cold PBS and cellular debris removed by passing through a […] cell strainer. The cell suspension was centrifuged at 300×g for 5 min at 4° C. and the pellet was treated with 1×RBC lysis buffer per manufacturer's protocol (Thermofisher). The washed cell pellet was resuspended for a final concentration of 5-10×10^6 cells/ml and 100 μl of cell suspension was processed for immunophenotyping. […] Cells were washed with cold FACS wash buffer (BD) and fixed with 1×FoxP3/Transcription Factor Fixation Buffer (Thermofisher) for overnight at 4° C. […] Cells were washed 2-3× with the permeabilization and wash buffer as mentioned earlier, and finally resuspended in FACS wash buffer. Samples were acquired on a BD LSRFortessa flow cytometer and data analyzed using the FlowJo software (BD).

Data set [2] deals with rat collagen induced arthritis (CIA) model. Briefly: Rat collagen-induced arthritis model: clinical score. To be noted: for reduction in the clinical score: in comparison to the vehicle treatment.
Excerpt: Adult female Lewis Rats (180-200 g body weight) were immunized subcutaneously with Type II bovine collagen/Incomplete Freund's Adjuvant emulsion on Day 0 and Day 7. On Day 14 rats were randomized based on clinical disease scores in different treatment groups. Rats received either once daily (q.d) dose of compounds via oral gavage or Vehicle (0.5% Carboxymethylcellulose-Na+0.5% Tween 80 in water, suspension) for 2 weeks. Naïve rats used as controls.
Data set [3] concerns Tregs. In words: Naïve mice: Treg levels after 4 weeks of dosing. Type of data set: in vivo. To be noted: 100 mg/kg dose, in comparison to vehicle control. The procedure:
Mice were dosed for 4 weeks with REO-751 or REO-095 and splenocytes were analyzed for Treg levels. Specifically, REO-751 or REO-095 MALT1 inhibitors were dosed at one of 1 mg/kg (mpk), 10 mg/kg (mpk), or 100 mg/kg (mpk).

Data set [4] concerns the target T1, MALT1 (Homo sapiens, UniProt Q9UDY8).
T1 sequence (Q9UDY8 1-824): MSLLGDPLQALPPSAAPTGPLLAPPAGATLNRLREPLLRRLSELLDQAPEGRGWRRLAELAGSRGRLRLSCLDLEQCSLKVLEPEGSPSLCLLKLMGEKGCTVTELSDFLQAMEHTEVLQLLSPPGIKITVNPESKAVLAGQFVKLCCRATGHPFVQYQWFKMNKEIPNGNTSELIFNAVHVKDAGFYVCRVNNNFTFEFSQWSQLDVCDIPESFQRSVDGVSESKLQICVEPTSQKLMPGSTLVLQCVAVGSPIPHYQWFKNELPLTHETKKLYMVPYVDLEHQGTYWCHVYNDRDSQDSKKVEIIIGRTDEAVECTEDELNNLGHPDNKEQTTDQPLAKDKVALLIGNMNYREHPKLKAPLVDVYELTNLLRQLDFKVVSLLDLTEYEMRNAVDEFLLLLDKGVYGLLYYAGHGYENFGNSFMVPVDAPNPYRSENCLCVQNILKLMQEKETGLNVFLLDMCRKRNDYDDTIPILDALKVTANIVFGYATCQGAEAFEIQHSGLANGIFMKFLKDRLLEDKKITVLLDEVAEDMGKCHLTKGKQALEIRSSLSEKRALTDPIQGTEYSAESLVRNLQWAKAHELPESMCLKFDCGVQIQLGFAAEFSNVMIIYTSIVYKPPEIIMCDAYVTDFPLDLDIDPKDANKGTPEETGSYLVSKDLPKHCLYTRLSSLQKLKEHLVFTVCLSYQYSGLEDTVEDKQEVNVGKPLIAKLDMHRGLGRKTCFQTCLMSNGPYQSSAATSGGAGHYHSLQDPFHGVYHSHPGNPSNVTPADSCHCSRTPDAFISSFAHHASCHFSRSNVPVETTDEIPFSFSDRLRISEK
Briefly: Example IC50 and IC90 values of MALT1 inhibitors (blood concentration targets). It counts as cell-based. To be noted: example values, blood concentration target; read-out: IC90. An excerpt:
In various embodiments, the plasma PK profile of the MALT1 inhibitor refers to a time over an IC50 blood concentration target following administration to the subject. As used herein, a “time over an IC50 blood concentration target” refers to a period of time following administration in which a concentration of the MALT1 inhibitor in the subject's blood is above the IC50 value.
In various embodiments, the plasma PK profile of the MALT1 inhibitor refers to a time over an IC90 blood concentration target following administration to the subject. As used herein, a “time over an IC90 blood concentration target” refers to a period of time following administration in which a concentration of the MALT1 inhibitor in the subject's blood is above the IC90 value.

The target in data set [5] is T1, MALT1. In words: IC50 and Kd values of MALT1 inhibitors (FIG. 17C).
Data set [6] deals with sclerodermatous GVHD (scGVHD) model. In words: Mouse GVHD (scGVHD) model: GVHD score and progression-free survival. Type of data set: in vivo, mice. To be noted: 100 mg/kg orally once daily days 21-56, at the end (Day 56). The method, then:
In this example, REO-751 MALT1 inhibitor at a dose of 100 mg/kg was administered to mice of a graft versus host disease (GVHD) model to investigate the impact of the administration of the MALT1 inhibitor. The effects of MALT1 inhibitors were evaluated in scGVHD and delayed-type hypersensitivity (DTH) models. For the scGVHD model, bone marrow (1E7 cells) and splenocytes (4E6) from LP/J donors were transferred to C57Bl/6 recipients that had received 8.5. Gy of total irradiation on the previous day. For the DTH model, female Balb/c mice were immunized with keyhole limpet hemocyanin (KLH) subcutaneously on day 0 and challenged with KLH intradermally 7 days later.
(§1) At time=0, mice were dosed with 1) naive, 2) vehicle, 3) REO-751 MALT1 inhibitor (100 mg/kg), or 4) ruxolitinib (60 mg/kg). […] GVHD scores were determined by monitoring the behavior of the mice post-administration according to the following grading system.
FIGS. 22A-22F show results following administration of a MALT1 inhibitor. Here, “Cpd1” and Cpd2” as shown in FIGS. 22A-22F refer to REO-751 MALT1 inhibitor. FIGS. 22A and 22B show overall survival (OS) and progression-free survival (PFS) Kaplan Meier curves, respectively, in a murine model of sclerodermatous GVHD (scGVHD) following administration of a MALT1 inhibitor. […]

For data set [7], the system named is spleen TFH cells, GC B cells, Treg cells. Briefly: Mouse GVHD model: spleen cell populations (TFH, GC B cells, Tregs). Type of data set: in vivo, mice. An excerpt: Here, FIGS. 22C-22E show percentages of each cell population in spleen, as measured by flow cytometry.
The nature of data set [8]: Mouse GVHD model: pharmacokinetics. It counts as in vivo, mice. To be noted: C57Bl/6, blood, oral; 100 mg/kg, on Day 55, mouse GVHD model; read-out: concentration at 24 hours post-administration. The procedure: as §1
Data set [9] deals with IL-2R signaling (pSTAT5). To be noted: 1 μM, positive control. The procedure: Purified Tregs were expanded as indicated above. […] Tregs were then stimulated with 25 IU IL-2 (Peprotech) for 15 min, followed by fixation with 2% paraformaldehyde. […] Levels of pSTAT5 were analyzed on a BD LSRFortessa flow cytometer.
Next, the impact of MALT1i on IL2R signaling was investigated. IL-2R signaling results in phosphorylation of STAT5 (pSTAT5) and is dependent on JAK1/3. Therefore, a flow cytometric readout of pSTAT5 was used to measure IL-2R activity and the JAK1/3-inhibitor tofacitinib served as a positive control for inhibition of pSTAT5.

On to `CO[C@@H](C)c1c(Nc2ccc([C@H](N(C)C(=O)C3CCN(C(C)=O)CC3)C(F)(F)F)cc2)cnc2cc(Cl)nn12` [REO-076], for which the “reduction in the Treg levels” value is given as 24% in data set [1] (3 mg/kg dose, CIA rats); 30% in data set [1] (10 mg/kg dose, CIA rats); 40% in [1] (30 mg/kg dose, CIA rats). Moreover, the “log10AUC value at ~40% reduction in Treg levels” value in [1] (rat CIA model) was ~2.25 μg*hr/mL. Also, the results for the “reduction in the clinical score” value in [2] (3 mg/kg dose), in [2] (10 mg/kg dose) and in [2] (30 mg/kg dose) were 23%, 42% and 74%, respectively. Moreover, the “log10AUC value at ~50% reduction in the clinical score” value (“log10AUC value at ~50% reduction” below) in [2] (rat CIA model) was ~1.85 μg*hr/mL.

In the case of `O=C(Nc1ccnc(C(F)(F)F)c1)c1cnn(-c2cccc3c(=O)[nH]ccc23)c1C(F)(F)F` [REO-095], the “reduction of Treg levels” value in data set [3] is 32%.

As a reminder, the IC90 is the concentration needed for an effect of 90%. Consider `CO[C@@H](C)c1c(Nc2ccc([C@H](N(C)C(=O)C3CCS(=O)(=O)CC3)C(F)(F)F)cc2)cnc2cc(Cl)nn12` [REO-528], for which, in [4], the IC90 was determined as 5.78 µM. For the same molecule, the “reduction in the Treg levels” value in data set [1] (3 mg/kg dose, CIA rats) stood at 3%. Moreover, the “reduction in the Treg levels” value in data set [1] (10 mg/kg dose, CIA rats) worked out at 36%. In addition, the “reduction in the Treg levels” value in data set [1] (30 mg/kg dose, CIA rats) worked out at 37%. Also, in data set [1] (rat CIA model), the “dose-dependent reduction of Tregs (FIG. 12B)” value is “dose-dependent reduction of Tregs was observed”, the “log10Cmax value at ~40% reduction in Treg levels” value is ~3.9 ng/mL, the “log10Ctrough value at ~50% reduction in Treg levels” value was ~2.6 ng/mL and the “qualitative Treg impact (FIG. 11)” value was “low Treg impact”. Besides, the “reduction in the clinical score” value in [2] (3 mg/kg dose) was 24%. For the same molecule, the “reduction in the clinical score” value in data set [2] (10 mg/kg dose) is 59%. For the same molecule, in data set [2] (30 mg/kg dose), the “reduction in the clinical score” value worked out at 74%. Besides, in [2] (rat CIA model), the “dose-dependent efficacy (FIG. 12A)” value is on record as “showed efficacy in a rat CIA model in a dose-dependent manner”, the “log10AUC value at ~50% reduction” value is reported as ~1.2 μg*hr/mL, the “log10Cmax value at ~50% reduction in the clinical score” value is ~3.3 ng/mL and the “log10Ctrough value at ~50% reduction in the clinical score” value is ~2.2 ng/mL. Further, in data set [2] (rat CIA model), the “qualitative efficacy (FIG. 11)” value is given as “high efficacy”.

Take `O=C(Nc1ccnc(C(F)(F)F)c1)Nc1cnn2ccc(Cl)c2c1C1CC1` [REO-703]: in [4], the IC90 is 4.95 µM. The “reduction in the Treg levels” value in data set [1] (CIA rats, 3, 10 and 30 mg/kg) is on record as “none of the doses of REO-703 resulted in a statistically significant reduction; also recorded: did not exhibit reduction of Tregs”. In addition, the “reduction in the clinical score” value in data set [2] (3 mg/kg dose) came out at 35%; in [2] (10 mg/kg dose), 57%; in data set [2] (30 mg/kg dose), 60%. Further, in data set [2] (rat CIA model), the “dose-dependent efficacy (FIG. 12A)” value is “showed efficacy in a rat CIA model in a dose-dependent manner”. Further, in data set [2] (rat CIA model), the “log10AUC value at ~50% reduction” value is ~1.2 μg*hr/mL.

In the case of `CO[C@@H](C)c1c(NC(=O)Nc2cnc(-n3nccn3)c(Cl)c2)cnc2cc(Cl)nn12` [REO-751], in [3], the “reduction of Treg levels” value worked out at 76%. For the same molecule, the “potency (IC50 values and Kd value) in comparison to REO-095” value in [5] was “increased potency”. In addition, the “mice achieving progression free survival” value in [6] was determined as 40%. Besides, in data set [7], the “difference in Treg with treatment” value was “No difference”. Moreover, the concentration at 24 h in data set [8] came to 385 ng/mL.

Consider `C[C@@H]1CCN(C(=O)CC#N)C[C@@H]1N(C)c1ncnc2[nH]ccc12` [tofacitinib, reference compound], for which the “basal levels of pSTAT5 in Tregs” value in [9] was “reduced”. Besides, the “reduction in the endpoint clinical score” value in [2] (5 mg/kg dose) is recorded as 75%.
